From paper PMC5735336, “Microwave-assisted synthesis and antitumor evaluation of a new series of thiazolylcoumarin derivatives” (EXCLI Journal, 2017) come the findings set out here.

A short description of data set [1]: In vitro cytotoxicity testing, MTT assay, W138 normal cells. In kind it is cell-based. The note with it: W138 normal lung fibroblast cells, human normal lung fibroblast W138, read-out: IC50 W138 normal cell line. The procedure:
In vitro cytotoxic activity of 5f, 5h, 5m and 5r was evaluated in accord to the reported method (Mosmann, 1983[46]; Denizot and Lang, 1986[13]; Gerlier and Thomasset, 1986[21]).
The effective antitumor compounds, 5f, 5h, 5m and 5r were further assessed for in vitro cytotoxicity toward human normal lung fibroblast (W138) cell line (Mosmann, 1983[46]; Denizot and Lang, 1986[13]; Gerlier and Thomasset, 1986[21]). IC50 values (µM) of the tested compounds and 5-FU (reference cytotoxic agent) were calculated. […]
(§1) In vitro antitumor screening
(§2) Compounds 5a-t were screened for in vitro antitumor activity against HepG2 (liver), HCT-116 (colon) and MCF-7 (breast) cancer cell lines adopting MTT assa y (Mosmann, 1983; Denizot and Lang, 1986; Gerlier and Thomasset, 1986) and usin g 5- fluorouracil as a reference antitumor agent. Cells were cultured in Roswell Park Memorial Institute (RPM I) 1640 medium wit h 10% fetal bovine serum, penicillin (100 units/mL) and streptomycin (100 µg/mL) at 37 ° C in an atmosphere of 5% CO 2 were added.
(§3) Cells were placed in 96-multiwell microtiter plates (10^4 cells/well), for 24 h rs at 37 °C and in an atmosphere of 5% CO2 before tr eatment with the compounds to allow attachment of the cells to the wall of the plate. The tested compounds were dissolved in DMSO and diluted with phosphate buffer saline (PBS) to obtain different concentrations. Tested compounds of dif-ferent concentrations were added to each well and cells were incubated with the compounds for 48 hrs at 37 °C and in an atmosphere of 5% CO2. All tests were performed in triplicates.
(§4) The treated cells were wash ed with PBS and 100 µL of 3 -(4,5-dimeth ylthiazol-2-yl )-2,5-diphe-n yltetrazolium bromide solution (MTT) (5 mg/m L MTT st ock in PBS diluted to 1 mg/ mL with 10% RPMI-1640 medium) was added. The 9 6 -multiwell plates were read b y microarra y read er Perkinelmer vector 3V multilabel counter model 1420 (Perkinelmer, Boston, MA) for optical densit y at 490 nm (Mosmann, 1983; Denizot and Lang, 1986; Gerlier and Thomasset, 1986).
(§5) The relative percenta ge cell viabilit y was calculate d from the following equation: […]
(§6) The relation between surviving fraction and drug concentration is plotted to get the survival curve for HepG2, HCT-116 and M CF-7 cancer cell lines . […]
In vitro cytotoxicity testing […]
J Immunol Methods. 1986;89:271-7.
(§7) Gerlier D, Thomasset T. Use of MTT colorimetric assa y to measure cell activation. J Immunol Methods. 1986; […]
(§8) Mosmann T. Rapid colorimetric assa y for cellular growth and survival: Application to proliferation and cytotox- […]
(§9) Oberling C, Gu erin M. The role of viruses in the production of cancer . Ad v Cancer Res. 1954;2:353-423.
(§10) Sheeja KR, Kuttan G, Kuttan R. C ytotox ic and antitumour activit y of Berberin. Amala Res Bull. 1997;17:73-6.

The next data set has as its system EAC cells. Kind of data set: In vivo antitumor screening against EAC cells in mice. The settings on record: 0.5 mg/mouse; for Hb / RBCs Count / WBCs Count: blood profile of mice inoculated with EAC cells; for Viable tumor cell count/100 μL / Tumor volume / Mean survival time / % Increase in lifespan: mice inoculated with EAC cells; for Viable tumor cell count/100 μL: after five days of treatment, trypan blue; for Tumor volume: ascitic fluid; for Mean survival time: treatment for nine days; for % Increase in lifespan: %ILS = [(MST treated/MST positive control)-1] x 100. The procedure: In vivo antitumor assessment of 5f, 5h, 5m and 5r was performed according to the literature method (Oberling and Guerin, 1954[48]; Sheeja et al., 1997[64]; Clarkson and Burchenal, 1965[9]).
Results of in vivo antitumor screening of compounds 5f, 5h, 5m and 5r (showing the highest in vitro antitumor activity) against EAC cells in mice are listed in Tables 2-4(Tab. 2)(Tab. 3)(Tab. 4). The % increase in lifespan of EAC inoculated mice (%ILS), the decrease in viable tumor cell count and the retrieval of normal blood profile are three substantial measures used for estimation of antitumor efficacy of the selected compounds and 5-fluorouracil (5-FU) (standard agent) (Oberling and Guerin, 1954[48]; Sheeja et al., 1997[64]; Clarkson and Burchenal, 1965[9]). The mean survival time (MST) of each group was rated and %ILS of mice inoculated with EAC cells was determined adopting the equation: %ILS = [(MST of treated group/ MST of positive control group)-1] x 100, where MST = days of the mouse in a group/total no. of mice. […] Also, this compound produced considerable decrease in viable tumor cell count (Table 3(Tab. 3)). […]
In vivo antitumor screening
Swiss male albino mice (wei ghing 20-25 g) were utilized. The y were dwelled in microlon boxes at temperature 25 ± 2 °C with a regular 12 hrs light/dark cycl e, in addition, food and water intake were permitted.
EAC cells were acquir ed from the NCI, Cairo, Egypt.
Mice were divided into 7 groups (n= 6).
Group 1: Negative contr ol (no EAC cells) - recei ved normal saline.
Group 2: Positive control (EAC cells) - receiv ed normal saline.
Group 3: EAC cells - received compound 5f (0.5 mg/mouse).
Group 4: EAC cells - received compound 5h (0.5 mg/mouse).
Group 5: EAC cells - received compound 5m (0.5 mg/mouse).
Group 6: EAC cells - received compound 5r (0.5 mg/mouse).
Group 7: EAC cells - received 5-fluorouracil (0.5 mg/mouse).
2 x 10^6 cells were inoc ulated intraperitoneall y t o each mouse in all groups ex cept the neg-ative control group. The tr eatment began 24 hrs after inoculation (0.5 mg/mouse) and con-tinued for nine days (Oberlin g and Gu erin, 19 54; Sheeja et al., 1997; Clarkson and Burch enal, […]
Determination of tumor volume
The ascetic fluid was gath ered from the peritoneal cavit y of dissected mice. It was th en centrifuged for 5 min and the tumor cell volume was set.
Determination of viable tumor cell count after five days of treatment
EAC cells (100 μ L, from three mice of each group) were obtained and diluted to twent y-fold with saline. The cells were st ained with tr ypan blue, t he dead cells are stained, whereas […]
The number of viable cells was counted. […]
Clarkson BD, Burchenal JH. Preliminary screening of antineoplastic drugs. Prog Clin Cancer. 1965;1:625-9. […]
as §9, §10

Data set [2] relates to cervical (Hela) cancer cell line. The data set is described as follows: In vitro antitumor screening, MTT assay, Hela. In kind it is cell-based. The note with it: Homo sapiens, 50% inhibition of cell viability. The procedure:
(§11) The new analogs were tested for in vitro antitumor efficacy adopting the reported procedure (Mosmann, 1983[46]; Denizot and Lang, 1986[13]; Gerlier and Thomasset, 1986[21]).
(§12) In vitro antitumor screening of compounds 5a-t was carried out on cervical (Hela) and kidney fibroblast (COS-7) cancer cell lines in accord to MTT assay (Mosmann, 1983[46]; Denizot and Lang, 1986[13]; Gerlier and Thomasset, 1986[21]) and utilizing doxorubicin as a standard drug. The concentrations of the compounds that cause 50% inhibition of cell viability (IC50, µM) were calculated. […]
as §1, §2, §3, §4, §5, §6
(§13) Denizot F, Lang R. Rapid colorimetric assa y for cell growth and survival. Modifications to the tetrazolium dye procedure giving improved sensitivity an d reliability. J Immunol Methods. 1986;89:271-7.
as §7, §8, §9, §10

For data set [3], the system named is kidney fibroblast (COS-7) cancer cell line. The data set is described as follows: In vitro antitumor screening, MTT assay, COS-7. In kind it is cell-based. The settings on record: Chlorocebus aethiops, 50% inhibition of cell viability, COS-7 cell line. The procedure:
as §11, §12
In vitro antitumor screening […]
HCT-116 (colon) and MCF-7 (breast) cancer cell lines adopting MTT assa y (Mosmann, 1983; Denizot and Lang, 1986; Gerlier and Thomasset, 1986) and usin g 5- fluorouracil as a reference antitumor agent. Cells were cultured in Roswell Park Memorial Institute (RPM I) 1640 medium wit h 10% fetal bovine serum, penicillin (100 units/mL) and streptomycin (100 µg/mL) at 37 ° C in an atmosphere of 5% CO 2 were added.
as §3, §4, §5, §6, §13, §7, §8, §9, §10

Bounds are passed on as bounds.

Regarding `O=c1[nH]cc(F)c(=O)[nH]1` [5-Fluorouracil, 5-fluorouracil, reference compound], the half-maximal inhibitory concentration (IC50) at 48 h in data set [1] turned out to be 5.73 µM. Also, in the data set with EAC cells, the Hb came to 12.96 g/dL, the “RBCs Count” value is 5.21 10^6/mm^3, the “WBCs Count” value is given as 8.86 10^3/mm^3 and the “Viable tumor cell count/100 μL” value is listed as 20.17x10^6 /100 μL. Also, in the data set with EAC cells, the Tumor volume was 1.60 mL, the Mean survival time worked out at 49.0 days and the “% Increase in lifespan” value is on record as 237.9%.
For `O=c1oc2ccccc2cc1-c1csc(NN=Cc2c(Cl)cccc2Cl)n1` [5f, 3-(2-(2-(2,6-Dichlorobenzylidene)hydrazino)thiazol-4-yl)-2H-chromen-2-one], the IC50 at 48 h in data set [1] worked out at 36.2 µM. For the same compound, in the data set on EAC cells, the Hb was determined as 12.92 g/dL, the “RBCs Count” value was 5.14 10^6/mm^3, the “WBCs Count” value is on record as 8.41 10^3/mm^3 and the “Viable tumor cell count/100 μL” value is reported as 25.83x10^6 /100 μL. Also, in the data set with EAC cells, the Tumor volume is reported as 2.62 mL, the Mean survival time stood at 41.0 days and the “% Increase in lifespan” value is 182.7%. The compound also came in with an IC50 in data set [2] of 1.9 µM. The concentration for half-maximal inhibition (IC50) in data set [3] is above 50 µM.
`O=c1oc2ccccc2cc1-c1csc(NN=Cc2cc([N+](=O)[O-])ccc2Cl)n1` [5h, 3-(2-(2-(2-Chloro-5-nitrobenzylidene)hydrazino)thiazol-4-yl)-2H-chromen-2-one]: in data set [1], the IC50 at 48 h was found to be 19.8 µM. Further, in the data set with EAC cells, the Hb was found to be 11.97 g/dL, the “RBCs Count” value is 4.92 10^6/mm^3, the “WBCs Count” value was 9.25 10^3/mm^3 and the “Viable tumor cell count/100 μL” value is 32.57x10^6 /100 μL. For the same compound, in the data set on EAC cells, the Tumor volume is given as 3.12 mL, the Mean survival time amounted to 39.3 days and the “% Increase in lifespan” value is reported as 171.0%. Also, the IC50 in data set [2] was determined as 1.42 µM. The IC50 in data set [3] is 1.96 µM.
On to `O=c1oc2ccccc2cc1-c1csc(NN=Cc2ccc[nH]2)n1` [5m, 3-(2-(2-((1H-Pyrrol-2-yl)methylidene)hydrazino)thiazol-4-yl)-2H-chromen-2-one], for which the IC50 at 48 h in data set [1] amounted to 29.5 µM. Besides, in the data set on EAC cells, the Hb stood at 11.43 g/dL, the “RBCs Count” value is 4.39 10^6/mm^3, the “WBCs Count” value is recorded as 9.61 10^3/mm^3 and the “Viable tumor cell count/100 μL” value is given as 40.52x10^6 /100 μL. For the same compound, in the data set with EAC cells, the Tumor volume was 3.85 mL, the Mean survival time is 37.0 days and the “% Increase in lifespan” value is 155.2%. In data set [2], this compound came in with an IC50 of 6.25 µM. The compound also showed an IC50 in data set [3] of 12.5 µM.
As to `O=c1oc2ccccc2cc1-c1csc(NN=Cc2c3ccccc3c(Cl)c3ccccc23)n1` [5r, 3-(2-(2-((10-Chloroanthracen-9-yl)-methylidene)hydrazino)thiazol-4-yl)-2H-chromen-2-one], the IC50 at 48 h in data set [1] is 24.3 µM. Besides, in the data set with EAC cells, the Hb turned out to be 13.10 g/dL, the “RBCs Count” value is listed as 5.55 10^6/mm^3, the “WBCs Count” value was 7.45 10^3/mm^3 and the “Viable tumor cell count/100 μL” value was 21.94x10^6 /100 μL. Moreover, in the data set on EAC cells, the Tumor volume amounted to 2.11 mL, the Mean survival time was 45.5 days and the “% Increase in lifespan” value turned out to be 213.8%. In data set [2], this compound showed an IC50 of 1.29 µM. The same compound yielded an IC50 in data set [3] of 1.66 µM.
